Measured values reported in ChEMBL document CHEMBL5512605, “Targeted regulated cell death with small molecule compounds in colorectal cancer: Current perspectives of targeted therapy and molecular mechanisms” (Eur J Med Chem, 2024).
pIC50: −log10 of the molar value. Each block holds one compound with its values, some of them ahead of it.

Experiments:
[1] = test system: HCT-116; experiment: Antiproliferative activity against human HCT-116 cells measured upto 72 hrs by CCK-8 method; type: functional
[2] = test system: SW480; experiment: Antiproliferative activity against human SW480 cells measured upto 72 hrs by CCK-8 method; type: functional
[3] = test system: LoVo; experiment: Antiproliferative activity against human LoVo cells measured upto 72 hrs by CCK-8 method; type: functional
[4] = test system: HCT-116; experiment: Antiproliferative activity against human HCT-116 cells assessed as inhibition of cell growth measured after 24 hrs by CellTiter 96 Aqueous One Solution Cell Proliferation Assay; type: functional, cell-based; conditions: HCT-116, 24 h
[5] = test system: SW480; experiment: Antiproliferative activity against human SW480 cells assessed as inhibition of cell growth measured after 24 hrs by CellTiter 96 Aqueous One Solution Cell Proliferation Assay; type: functional, cell-based; conditions: SW480, 24 h
[6] = test system: Caco-2; experiment: Antiproliferative activity against human Caco-2 cells measured after 24 hrs by MTT assay; type: functional, cell-based; conditions: Caco-2, 24 h
[7] = test system: HCT-116; experiment: Antiproliferative activity against human HCT-116 cells assessed as inhibition of cell viability measured after 24 hrs by CCK-8 method; type: functional, cell-based; conditions: HCT-116, 24 h
[8] = test system: HT-29; experiment: Antiproliferative activity against human HT-29 cells assessed as inhibition of cell viability measured after 24 hrs by CCK-8 method; type: functional, cell-based; conditions: HT-29, 24 h
[9] = test system: HT-29; experiment: Antiproliferative activity in human HT-29 cells incubated for 48 hrs by MTT assay; type: functional, cell-based; conditions: HT-29, 48 h
[10] = test system: HCT-116; experiment: Cytotoxicity against human HCT-116 cells assessed as inhibition of cell growth incubated for 24 hrs by MTT assay; type: functional
[11] = test system: SW-620; experiment: Antiproliferative activity against human SW620 cells measured upto 60 hrs by MTS assay; type: functional
[12] = test system: SW480; experiment: Antiproliferative activity against human SW480 cells incubated for 24 hrs by CCK-8 method; type: functional, cell-based
[13] = test system: SW 1116; experiment: Antiproliferative activity against human SW 1116 cells incubated for 24 hrs by CCK-8 method; type: functional, cell-based
[14] = test system: HCT-116; experiment: Antiproliferative activity against human HCT-116 cells expressing wild type p53 measured after 48 hrs by MTT assay; type: functional, cell-based; conditions: HCT-116, 48 h
[15] = test system: HT-29; experiment: Cytotoxicity against human HT-29 cells; type: functional, cell-based
[16] = test system: COLO 205; experiment: Cytotoxicity against human COLO 205 cells; type: functional, cell-based
[17] = test system: KM12; experiment: Cytotoxicity against human KM12 cells; type: functional, cell-based
[18] = test system: SW480; experiment: Cytotoxicity against human SW480 cells assessed as inhibition of cell proliferation measured after 48 hrs by MTT assay; type: functional, cell-based; conditions: time 48 hrs
[19] = test system: HCT-116; experiment: Cytotoxicity against human HCT-116 cells assessed as inhibition of cell proliferation measured after 72 hrs by SRB method; type: functional, cell-based
[20] = test system: HCT-116; experiment: Antiproliferative activity against human HCT-116 cells incubated for 24 hrs by MTT assay; type: functional
[21] = test system: LoVo; experiment: Antiproliferative activity in human LoVo cells incubated for 72 hrs by MTT assay; type: functional, cell-based
[22] = test system: HCT-116; experiment: Antiproliferative activity against human HCT-116 cells measured after 72 hrs by SRB method; type: functional, cell-based; conditions: HCT-116, 72 h
[23] = test system: HT-29; experiment: Antiproliferative activity against human HT-29 cells measured after 72 hrs by SRB method; type: functional, cell-based; conditions: HT-29, 72 h
[24] = test system: HCT-116; experiment: Antiproliferative activity against human HCT-116 cells measured after 48 hrs by MTT assay; type: functional, cell-based; conditions: HCT-116, 48 h
[25] = test system: LoVo; experiment: Antiproliferative activity against human LoVo cells measured after 48 hrs by MTT assay; type: functional, cell-based
[26] = test system: HCT-8; experiment: Antiproliferative activity against human HCT-8 cells measured after 48 hrs by MTT assay; type: functional, cell-based; conditions: HCT-8, 48 h
[27] = test system: HCT-116; experiment: Antiproliferative activity against human HCT-116 cells assessed as inhibition of cell viability by CCK-8 method; type: functional, cell-based
[28] = test system: DLD-1; experiment: Antiproliferative activity against human DLD-1 cells assessed as inhibition of cell viability by CCK-8 method; type: functional, cell-based
[29] = test system: HCT-116; experiment: Cytotoxicity against human HCT-116 cells assessed as inhibition of cell proliferation measured after 48 hrs by MTT assay; type: functional, cell-based; conditions: HCT-116, 48 h
[30] = test system: SW-620; experiment: Cytotoxicity against human SW620 cells assessed as inhibition of cell proliferation measured after 48 hrs by MTT assay; type: functional, cell-based; conditions: SW-620, 48 h
[31] = test system: RKO; experiment: Cytotoxicity against human RKO cells assessed as inhibition of cell proliferation measured after 48 hrs by MTT assay; type: functional, cell-based

Compound: C[C@H]1[C@H](C)CC[C@]2(C(=O)O[C@@H]3O[C@H](CO[C@@H]4O[C@H](CO)[C@@H](O[C@@H]5O[C@@H](C)[C@H](O)[C@@H](O)[C@H]5O)[C@H](O)[C@H]4O)[C@@H](O)[C@H](O)[C@H]3O)CC[C@]3(C)C(=CC[C@@H]4[C@@]5(C)C[C@@H](O)[C@H](O)[C@@](C)(CO)[C@@H]5CC[C@]43C)[C@H]12
- IC [1]: 2 µM
- IC [2]: 2 µM
- IC [3]: 2 µM

- pIC50 [4]: 4.97
- pIC50 [5]: 4.95
Compound: C[C@@H]1CC[C@]2(C(=O)O)CC[C@]3(C)C(=CC[C@@H]4[C@@]5(C)CC[C@H](O[C@@H]6OC[C@H](O)[C@H](O)[C@H]6O)C(C)(C)[C@@H]5CC[C@]43C)[C@@H]2[C@]1(C)O

Compound: C[S+]([O-])CCCCN=C=S (stereo unspecified) [SULFORAPHANE]
- pIC50 [6]: 4.26

- pIC50 [7]: 4.53
- pIC50 [8]: 4.43
Compound: O=c1cc(-c2ccc(O)cc2)oc2cc(O)c([C@@H]3O[C@H](CO)[C@@H](O)[C@H](O)[C@H]3O)c(O)c12 [ISOVITEXIN]

- pIC50 [9]: 4.63
Compound: C=CCCCOc1cc(O)c2c(c1)OC(c1ccc(O)cc1)CC2=O (stereo unspecified)

Compound: NCCCNCCCCNCCCN1C(=O)c2ccc3c4c(ccc(c24)C1=O)C(=O)N(CCCNCCCCNCCCN)C3=O
- IC [10]: 1 µM

Compound: COc1cc2c(=O)oc3c(OC)c(O)cc4c(=O)oc(c1OC)c2c34
- IC [11]: 15 µM

- pIC50 [12]: 4.81
Compound: IVERMECTIN
- pIC50 [13]: 5.20

- pIC50 [14]: 6.01
Compound: Cc1c(CO)c(CO)c2n1[C@H](c1ccccc1)SC2

Compound: c1ccc(-c2ccc(-c3csc(N/N=C4\CCc5ccccc54)n3)cc2)cc1
- pIC50 [15]: 6.36
- pIC50 [16]: 6.01
- pIC50 [17]: 6.39

Compound: CC(C)c1cccc(C(C)C)c1O [PROPOFOL]
- IC [18]: 12.5 µM

Compound: C/C=C\C(=O)O[C@@H]1C[C@H]2O[C@@H]3C=C(C)C(=O)C[C@]3(C)[C@]1(C)[C@]21CO1 [TRICHOTHECIN]
- pIC50 [19]: 6.60

Compound: COc1ccccc1[C@@H](NS(=O)(=O)c1ccc2[nH]c(=O)ccc2c1)C(=O)N(Cc1ccco1)Cc1cccs1
- IC [20]: 20 µM

- pIC50 [21]: 6.00
Compound: O=C1/C(=C/c2ccccc2Br)CSC/C1=C\c1ccccc1Br

- pIC50 [22]: 6.49
- pIC50 [23]: 5.33
Compound: O=C(Nc1ccc([N+](=O)[O-])cc1Cl)c1cc(Cl)ccc1O [NICLOSAMIDE]

- pIC50 [24]: 7.54
- pIC50 [25]: 7.20
- pIC50 [26]: 6.27
Compound: CO[C@H]1C(=O)[C@]2(C)[C@@H](OC)C[C@H]3OC[C@@]3(OC(C)=O)[C@H]2[C@H](OC(=O)c2ccccc2)[C@]2(O)C[C@H](OC(=O)[C@H](O)[C@@H](NC(=O)OC(C)(C)C)c3ccccc3)C(C)=C1C2(C)C [CABAZITAXEL]

Compound: CETUXIMAB
- IC [27]: 100 µM
- IC [28]: 100 µM

Compound: CC(=O)O[C@H]1[C@H]2O[C@]23[C@@H]2CC[C@@H]4C[C@@H](O)CC[C@]4(C)[C@H]2CC[C@]3(C)[C@H]1c1ccc(=O)oc1 [CINOBUFAGIN]
- pIC50 [29]: 6.11
- pIC50 [30]: 6.44
- pIC50 [31]: 6.74
